Test results from patent US20070219346A1, “Glucose sensor and uses thereof” (McGill University, priority 2002, published 2007).
Entries after “also recorded” stand apart in the source; their conditions may differ.

Tests used:
[1] = Enzymatic activity of glucokinase immobilized on solid supports or electrode surfaces; assay type: biochemical, human; conditions: for glucokinase activity while immobilized: on glutathione or Ni2+-containing supports
Method: The enzymatic activity of the wild-type GST and His-tagged glucokinases was measured while the proteins were immobilized on glutathione or Ni^2+-containing supports, respectively.
This was not a complete surprise, as the final coupling requires free amino groups of the protein. Most likely there are a significant number of such groups involved, but in the process of participating in the coupling, enzyme function is destroyed.
Each step was analyzed by bioimpedance measurements. First, nitrilotriacetic acid (NTA) ligand (FIG. 9A) was coupled to SP electrode surface using 1-ethyl-3-(3-dimethylaminopropyl)-carbodiimide (EDC) activation (FIG. 9B). Electrodes were then loaded with Ni^2+ cations. Wild-type His-GLK (1 μg) was then avidly coupled to the electrode surface, again corroborated by impedance measurements (FIG. 9C). These prepared electrodes were subsequently used as glucose biosensors.

[2] = Intrinsic fluorescence spectroscopy of His-tagged glucokinase immobilized on Ni-NTA agarose; assay type: binding, human; conditions: for change of maximal intrinsic fluorescence in presence of glucose, immobilized protein: 100 mM glucose, Ni-NTA agarose bound
Method: FIG. 8 depicts fluorescence spectroscopy analysis of His-tagged glucokinase immobilized on Ni-NTA agarose (QIAGEN). The intrinsic fluorescence intensity spectra were measured in the absence and presence of 100 mM glucose following excitation at 280 nm. The baseline spectrum of immobilized His-tagged glucokinase alone is shown (Ni-NTA-His-GLK, thin line).
Intrinsic fluorescence experiments were performed on purified immobilized wild-type N-terminal His-tagged glucokinase (FIG. 8). […] Next, immobilized His-GLK that had been previously incubated with glucose was washed with glucose-free buffer. […] When the washed Ni^2+-bound His-GLK was incubated with glucose, again an upward shift in the fluorescence intensity occurred, indicative of a recurring conformational change in the protein.

[3] = Impedance biosensing with His-GLK immobilized on Ni2+-NTA screen-printed electrodes; design: species or system human; conditions: 100 mM glucose, Ni2+-NTA screen-printed electrode
Method: FIG. 9 depicts A) Immobilized-metal affinity chromatography (IMAC). Adjacent histidine residues in His-tagged proteins interact with the Ni^2+-NTA matrix. B-D) Typical Nyquist diagrams obtained for different electrode surface conditions. The imaginary (Zi) and real (Zr) complex impedence elements were calculated by computer following impedence measurements. B) Modification of screen-printed electrode (SPE) with NTA ligand. Nitrilotriacetic acid (NTA) ligand was coupled to the bare SPE electrode surface using 1-ethyl-3-(3-dimethylaminopropyl)-carbodiimide (EDC) activation. C) Immobilization of glucokinase. The SPE was loaded with Ni^2+ cations (Ni2+) and His-tagged wild-type glucokinase (GLK) immobilized on the surface. D) Detection of glucose.
To establish the use of modified re-engineered glucokinase molecules as potential mediators of glucose recognition, experiments were performed using impedance biosensing technology. The initial objectives were to covalently immobilize wild-type glucokinase on two potential electrode substrates: silicon (Si; industry standard), and screen-printed graphite (SP) electrodes [Marquette, C. A. et al., Anal. Chem., 78:959-964 (2006)]. Impedance measurements were used to monitor the changes of glucokinase in the presence of glucose. […]
Each step was analyzed by bioimpedance measurements. […]

[4] = Intrinsic fluorescence spectroscopy of His-tagged glucokinase in solution; assay type: binding, human; conditions: 100 mM glucose, excitation 280 nm
Method: FIG. 7 depicts fluorescence spectroscopy analysis of His-tagged glucokinase. The intrinsic fluorescence intensity spectrum of His-tagged wild-type glucokinase was measured following excitation at 280 nm. The baseline spectrum of His-tagged glucokinase alone is shown (His-GLK, thin dashed line).
Intrinsic fluorescence experiments with glucokinase were performed to document and verify glucose-induced conformational changes, which is an absolute requirement for impedance biosensing to be successful. Purified wild-type N-terminal His-tagged glucokinase (10 μg) with enzyme specific activity of ≅200 U/mg was used in a 10×10 mm^2 cuvette. After the addition of 100 mM glucose, intrinsic fluorescence spectroscopy was performed (excitation wavelength 280 nm; maximum fluorescence 312 nm). There is a 20-25% increase in maximal intrinsic fluorescence at 312 nm with the addition of 100 mM glucose, reflective of conformational changes in the His-tagged glucokinase (FIG. 7). This is similar to native wild-type glucokinase [Xu L Z, Zhang W, Weber I T, Harrison R W, Pilkis S J. 1994. Site-directed mutagenesis studies on the determinants of sugar specificity and cooperative behavior of human beta-cell glucokinase. J Biol Chem 269:27458-27465; and Xu L Z, Weber I T, Harrison R W, Gidh-Jain M, Pilkis S J. 1995. […]

[5] = Glucokinase activity of purified tagged glucokinases, coupled glucose 6-P dehydrogenase/NADPH assay; assay type: biochemical, human
Method: Glucokinase activity was assayed as described previously [Storer, A. C., et al., Biochem. J. 141:205-209 (1974)] with the following modifications. Reactions were carried out at 25° C. in 50 nM glycylglycinate buffer, pH 7.8, containing 1 mM NADP, 100 mM KCl, 5 mM MgCl2, 1 unit of glucose 6-P dehydrogenase, 100 mM glucose, 5 mM ATP, and glucokinase in a total volume of 1 ml. All reaction mixtures were incubated at 25° C.
Production of NADPH was followed by the increase in absorbance at 340 nm using a spectrophotometer. Glucokinase activity may then be calculated using the following formula: Activity (units/ml)=(Δ OD/min)/0.15×dilution factor
A unit of activity is the amount of glucokinase which transforms, under optimal conditions, 1 μmole of substrate/min at room temperature.
The glucokinase activity of the purified glucokinases was assayed as above.

| Substance | glucokinase activity while immobilized [1] | glucokinase activity while immobilized ([1]; listed as His-tagged glucokinase) | change of maximal intrinsic fluorescence in presence of glucose, immobilized protein [2] | change of maximal intrinsic fluorescence in presence of glucose, immobilized protein ([2]; listed as Ni-NTA-His-GLK) | reversibility of glucose binding ([2]; immobilized, washed with glucose-free buffer) | impedance change in the presence of glucose [3] | impedance change in the presence of glucose ([3]; listed as His-tagged GLK) | increase in maximal intrinsic fluorescence at 312 nm [4] | change of maximum intrinsic fluorescence intensity on glucose addition ([4]; in solution) | glucokinase enzymatic activity ([5]; purified affinity-tagged protein, 100 mM glucose, 5 mM ATP, 25° C.) | enzyme specific activity ([5]; purified wild-type N-terminal His-tagged glucokinase) | enzyme activity after covalent coupling to electrode surface ([1]; nitrobenzenediazoniun/glutaraldehyde coupling) |
| --- | --- | --- | --- | --- | --- | --- | --- | --- | --- | --- | --- | --- |
| His-GLK: wild-type human liver glucokinase with N-terminal polyhistidine tag, expressed from pET-15b in E. coli | retained glucokinase activity | retained full enzymatic activity | increase in the maximal intrinsic fluorescence | maximum fluorescence intensity increased | reversible | significant impedance changes | significant shift to the left in the curve | 20-25% | increase in the maximum fluorescence intensity | expected enzymatic activity; also recorded: significant glucokinase enzymatic activity | ~200 U/mg |  |
| glucokinase: human wild-type glucokinase, hexokinase family enzyme binding D-glucose |  |  |  |  |  |  |  |  |  |  |  | total loss of enzyme activity |
